In BindingDB's records for doi:10.1021/jm010087e (The University of Western Australia, 2001) one finds Ki data, which are given here for 42 molecules.

This test can be described thus: Inhibitory activity against clostridium histolyticum collagenase.

Consider `CC(C(=O)O)N(Cc1ccccc1[N+](=O)[O-])S(=O)(=O)Cc1ccccc1` (configuration not stated) [2-[(2-Nitro-benzyl)-phenylmethanesulfonyl-amino]-propionic acid], for which the Ki (commonly the dissociation constant of the complex between target and ligand, obtained from inhibition or displacement) came out at 18000 nM.
`CC(C(=O)O)N(Cc1ccccc1[N+](=O)[O-])S(=O)(=O)c1ccc([N+](=O)[O-])c(Cl)c1` (configuration not stated) [2-[(3-Chloro-4-nitro-benzenesulfonyl)-(2-nitro-benzyl)-amino]-propionic acid] came in with a Ki of 3100 nM.
`CC(=O)Nc1ccc(S(=O)(=O)N(Cc2ccccc2[N+](=O)[O-])C(C)C(=O)O)cc1` (configuration not stated) [2-[(4-Acetylamino-benzenesulfonyl)-(2-nitro-benzyl)-amino]-propionic acid]: affinity was put at a Ki of 3300 nM.
Then `CC(C(=O)NO)N(Cc1ccccc1[N+](=O)[O-])S(=O)(=O)c1ccc(NC(=O)OC(C)(C)C)cc1` (configuration not stated) [{4-[(1-Hydroxycarbamoyl-ethyl)-(2-nitro-benzyl)-sulfamoyl]-phenyl}-carbamic acid tert-butyl ester], with 9 nM; and `COc1ccc(S(=O)(=O)N(Cc2ccccc2[N+](=O)[O-])C(C)C(=O)O)cc1NC(=O)OC(C)(C)C` (configuration not stated) [2-[(3-tert-Butoxycarbonylamino-4-methoxy-benzenesulfonyl)-(2-nitro-benzyl)-amino]-propionic acid], with 2500 nM.
Then `CC(C(=O)NO)N(Cc1ccccc1[N+](=O)[O-])S(=O)(=O)c1ccccc1[N+](=O)[O-]` (configuration not stated) [N-Hydroxy-2-[(2-nitro-benzenesulfonyl)-(2-nitro-benzyl)-amino]-propionamide], with 11 nM; and `CC(C(=O)NO)N(Cc1ccccc1[N+](=O)[O-])S(=O)(=O)C(F)(F)C(F)(F)C(F)(F)C(F)(F)C(F)(F)C(F)(F)C(F)(F)C(F)(F)F` (configuration not stated) [2-[(Heptadecafluorooctane-1-sulfonyl)-(2-nitro-benzyl)-amino]-N-hydroxy-propionamide], with 8 nM; and `CC(C(=O)O)N(Cc1ccccc1[N+](=O)[O-])S(=O)(=O)c1cccc(NC(=O)OC(C)(C)C)c1` (configuration not stated) [2-[(3-tert-Butoxycarbonylamino-benzenesulfonyl)-(2-nitro-benzyl)-amino]-propionic acid], with 2500 nM.
As to `CC(C(=O)O)N(Cc1ccccc1[N+](=O)[O-])S(=O)(=O)c1cccc(C(F)(F)F)c1` (configuration not stated) [2-[(2-Nitro-benzyl)-(3-trifluoromethyl-benzenesulfonyl)-amino]-propionic acid], the Ki came to 400 nM.
Then `CC(C(=O)NO)N(Cc1ccccc1[N+](=O)[O-])C(=O)Nc1ccc(Cl)c(Cl)c1` (configuration not stated) [2-[3-(3,4-Dichloro-phenyl)-1-(2-nitro-benzyl)-ureido]-N-hydroxy-propionamide], with 14 nM.
Then `CC(C(=O)O)N(Cc1ccccc1[N+](=O)[O-])S(=O)(=O)c1cccc2cccnc12` (configuration not stated) [2-[(2-Nitro-benzyl)-(quinoline-8-sulfonyl)-amino]-propionic acid], with 2000 nM.
Then `CC(C(=O)O)N(Cc1ccccc1[N+](=O)[O-])S(=O)(=O)c1cccc2c(N(C)C)cccc12` (configuration not stated) [2-[(5-Dimethylamino-naphthalene-1-sulfonyl)-(2-nitro-benzyl)-amino]-propionic acid], with 2100 nM.
`CC(C(=O)O)N(Cc1ccccc1[N+](=O)[O-])S(=O)(=O)c1ccc(Cl)cc1` (configuration not stated) [2-[(4-Chloro-benzenesulfonyl)-(2-nitro-benzyl)-amino]-propionic acid] displayed a Ki of 11000 nM.
Regarding `CC(C(=O)NO)N(Cc1ccccc1[N+](=O)[O-])S(=O)(=O)c1ccc([N+](=O)[O-])c(Cl)c1` (configuration not stated) [2-[(3-Chloro-4-nitro-benzenesulfonyl)-(2-nitro-benzyl)-amino]-N-hydroxy-propionamide], the inhibition constant Ki is 9 nM.
The same measure for `Cc1ccccc1S(=O)(=O)NC(=O)N(Cc1ccccc1[N+](=O)[O-])C(C)C(=O)O` (configuration not stated) [2-[({[(2-methylphenyl)sulfonyl]amino}carbonyl)(2-nitrobenzyl)amino]propanoic acid]: 3000 nM.
The same measure for `CC(C(=O)O)N(Cc1ccccc1[N+](=O)[O-])Sc1ccc([N+](=O)[O-])cc1[N+](=O)[O-]` (configuration not stated) [2-[(2,4-Dinitro-phenylsulfanyl)-(2-nitro-benzyl)-amino]-propionic acid]: 5200 nM; for `CC(C(=O)NO)N(Cc1ccccc1[N+](=O)[O-])S(=O)(=O)c1cccc(C(=O)O)c1` (configuration not stated) [3-[(1-Hydroxycarbamoyl-ethyl)-(2-nitro-benzyl)-sulfamoyl]-benzoic acid]: 8 nM; for `CC(C(=O)NO)N(Cc1ccccc1[N+](=O)[O-])S(=O)(=O)c1ccccc1` (configuration not stated) [2-[Benzenesulfonyl-(2-nitro-benzyl)-amino]-N-hydroxy-propionamide]: 59 nM.
The same measure for `COc1ccc(S(=O)(=O)N(Cc2ccccc2[N+](=O)[O-])C(C)C(=O)NO)cc1` (configuration not stated) [2-(N-(2-nitrobenzyl)-4-methoxyphenylsulfonamido)-N-hydroxypropanamide]: 19 nM; for `CC(C(=O)O)N(Cc1ccccc1[N+](=O)[O-])S(=O)(=O)c1cc(Cl)cc(Cl)c1O` (configuration not stated) [2-[(3,5-Dichloro-2-hydroxy-benzenesulfonyl)-(2-nitro-benzyl)-amino]-propionic acid]: 2700 nM.
`CC(C(=O)NO)N(Cc1ccccc1[N+](=O)[O-])C(=O)NS(=O)(=O)c1ccc(Cl)cc1` (configuration not stated) [2-[({[(4-chlorophenyl)sulfonyl]amino}carbonyl)(2-nitrobenzyl)amino]-N-hydroxypropanamide]: the affinity, expressed as Ki, was 7 nM.
Turning to `CC(C(=O)O)N(Cc1ccccc1[N+](=O)[O-])S(C)(=O)=O` (configuration not stated) [2-[Methanesulfonyl-(2-nitro-benzyl)-amino]-propionic acid], affinity was put at a Ki of 22000 nM.
The same measure for `CC(C(=O)O)N(Cc1ccccc1[N+](=O)[O-])C(=O)Nc1ccc(Cl)cc1` (configuration not stated) [2-[3-(4-Chloro-phenyl)-1-(2-nitro-benzyl)-ureido]-propionic acid]: 6800 nM.
Then `CC(C(=O)NO)N(Cc1ccccc1[N+](=O)[O-])S(=O)(=O)c1cc(Cl)ccc1Cl` (configuration not stated) [2-[(2,5-Dichloro-benzenesulfonyl)-(2-nitro-benzyl)-amino]-N-hydroxy-propionamide], with 14 nM; and `Cc1ccc(S(=O)(=O)NC(=O)N(Cc2ccccc2[N+](=O)[O-])C(C)C(=O)O)cc1` (configuration not stated) [2-[({[(4-methylphenyl)sulfonyl]amino}carbonyl)(2-nitrobenzyl)amino]propanoic acid], with 3100 nM; and `CC(C(=O)NO)N(Cc1ccccc1[N+](=O)[O-])C(=O)Nc1cccc(Cl)c1` (configuration not stated) [2-[3-(3-Chloro-phenyl)-1-(2-nitro-benzyl)-ureido]-N-hydroxy-propionamide], with 17 nM.
Molecule `CC(C(=O)NO)N(Cc1ccccc1[N+](=O)[O-])S(=O)(=O)Cc1ccccc1` (configuration not stated) [N-Hydroxy-2-[(2-nitro-benzyl)-phenylmethanesulfonyl-amino]-propionamide] displayed a Ki of 55 nM.
The same measure for `CC(C(=O)NO)N(Cc1ccccc1[N+](=O)[O-])S(=O)(=O)c1cccc2ccccc12` (configuration not stated) [N-Hydroxy-2-[(naphthalene-1-sulfonyl)-(2-nitro-benzyl)-amino]-propionamide]: 6 nM.
The same measure for `Cc1cc(C)c(S(=O)(=O)N(Cc2ccccc2[N+](=O)[O-])C(C)C(=O)O)c(C)c1` (configuration not stated) [2-[(2-Nitro-benzyl)-(2,4,6-trimethyl-benzenesulfonyl)-amino]-propionic acid]: 6000 nM; for `Cc1cc(C)c(S(=O)(=O)N(Cc2ccccc2[N+](=O)[O-])C(C)C(=O)NO)c(C)c1` (configuration not stated) [N-Hydroxy-2-[(2-nitro-benzyl)-(2,4,6-trimethyl-benzenesulfonyl)-amino]-propionamide]: 21 nM; for `CC(C(=O)NO)N(Cc1ccccc1[N+](=O)[O-])C(=O)NS(=O)(=O)c1ccccc1` (configuration not stated) [N-hydroxy-2-((2-nitrobenzyl){[(phenylsulfonyl)amino]carbonyl}amino)propanamide]: 12 nM.
The same measure for `CC(C(=O)NO)N(Cc1ccccc1[N+](=O)[O-])S(=O)(=O)c1cccc(C(F)(F)F)c1` (configuration not stated) [N-Hydroxy-2-[(2-nitro-benzyl)-(3-trifluoromethyl-benzenesulfonyl)-amino]-propionamide]: 5 nM; for `CC(C(=O)NO)N(Cc1ccccc1[N+](=O)[O-])S(=O)(=O)c1ccc(Cl)cc1` (configuration not stated) [2-[(4-Chloro-benzenesulfonyl)-(2-nitro-benzyl)-amino]-N-hydroxy-propionamide]: 32 nM; for `CC(C(=O)O)N(Cc1ccccc1[N+](=O)[O-])S(=O)(=O)c1ccc(F)cc1` (configuration not stated) [2-[(4-Fluoro-benzenesulfonyl)-(2-nitro-benzyl)-amino]-propionic acid]: 12000 nM.
As for `CC(C(=O)NO)N(Cc1ccccc1[N+](=O)[O-])C(=O)NS(=O)(=O)c1ccc(F)cc1` (configuration not stated) [2-[({[(4-fluorophenyl)sulfonyl]amino}carbonyl)(2-nitrobenzyl)amino]-N-hydroxypropanamide], the Ki stood at 8 nM.
As for `CC(C(=O)NO)N(Cc1ccccc1[N+](=O)[O-])S(=O)(=O)c1ccc2ccccc2c1` (configuration not stated) [N-Hydroxy-2-[(naphthalene-2-sulfonyl)-(2-nitro-benzyl)-amino]-propionamide], the Ki is 8 nM.
`CC(C(=O)NO)N(Cc1ccccc1[N+](=O)[O-])S(=O)(=O)c1cccc(NC(=O)OC(C)(C)C)c1` (configuration not stated) [{3-[(1-Hydroxycarbamoyl-ethyl)-(2-nitro-benzyl)-sulfamoyl]-phenyl}-carbamic acid tert-butyl ester] had a Ki of 8 nM.
In turn, `CC(C(=O)O)N(Cc1ccccc1[N+](=O)[O-])C(=O)NS(=O)(=O)c1ccccc1` (configuration not stated) [2-((2-nitrobenzyl){[(phenylsulfonyl)amino]carbonyl}amino)propanoic acid] came in with a Ki of 3600 nM.
The same measure for `CC(C(=O)O)N(Cc1ccccc1[N+](=O)[O-])S(=O)(=O)C(Cl)(Cl)Cl` (configuration not stated) [2-[(2-Nitro-benzyl)-trichloromethanesulfonyl-amino]-propionic acid]: 5000 nM; for `CC(C(=O)NO)N(Cc1ccccc1[N+](=O)[O-])C(=O)Nc1ccc(Cl)cc1` (configuration not stated) [2-[3-(4-Chloro-phenyl)-1-(2-nitro-benzyl)-ureido]-N-hydroxy-propionamide]: 19 nM; for `CC(C(=O)NO)N(Cc1ccccc1[N+](=O)[O-])C(=O)Nc1ccc(F)cc1` (configuration not stated) [2-[3-(4-Fluoro-phenyl)-1-(2-nitro-benzyl)-ureido]-N-hydroxy-propionamide]: 15 nM.
The same measure for `CC(C(=O)O)N(Cc1ccccc1[N+](=O)[O-])Sc1ccc([N+](=O)[O-])cc1` (configuration not stated) [2-[(2-Nitro-benzyl)-(4-nitro-phenylsulfanyl)-amino]-propionic acid]: 6000 nM.
